{
  "source": "patent US10251915B2",
  "about": "“Co-encapsulation of live cells with oxygen-generating particles” (Wake Forest University Health Sciences, priority 2011, dated 2019)",
  "molecules": {"B1": {"name": "catalase: Catalase (from bovine liver), peroxide decomposition catalyst (protein, UniProt P00432 2-527, looked up)", "Catalase": "ADNRDPASDQMKHWKEQRAAQKPDVLTTGGGNPVGDKLNSLTVGPRGPLLVQDVVFTDEMAHFDRERIPERVVHAKGAGAFGYFEVTHDITRYSKAKVFEHIGKRTPIAVRFSTVAGESGSADTVRDPRGFAVKFYTEDGNWDLVGNNTPIFFIRDALLFPSFIHSQKRNPQTHLKDPDMVWDFWSLRPESLHQVSFLFSDRGIPDGHRHMNGYGSHTFKLVNANGEAVYCKFHYKTDQGIKNLSVEDAARLAHEDPDYGLRDLFNAIATGNYPSWTLYIQVMTFSEAEIFPFNPFDLTKVWPHGDYPLIPVGKLVLNRNPVNYFAEVEQLAFDPSNMPPGIEPSPDKMLQGRLFAYPDTHRHRLGPNYLQIPVNCPYRARVANYQRDGPMCMMDNQGGAPNYYPNSFSAPEHQPSALEHRTHFSGDVQRFNSANDDNVTQVRTFYLKVLNEEQRKRLCENIAGHLKDAQLFIQKKAVKNFSDVHPEYGSRIQALLDKYNEEKPKNAVHTYVQHGSHLSAREKANL"}},
  "key": {"[1]": {"assay": "Oxygen release (dissolved oxygen) from POGS encapsulated in alginate microbeads in a hypoxic chamber", "type": "physicochemical", "conditions": "for duration of oxygen release from alginate microbeads containing MgO2 in the presence of antioxidant: 2.5% MPO in alginate microcapsules, 100 U/ml catalase, 1.5 mM Trolox, compared to MPO alone", "from_the_text": "FIG. 1: Comparison of CaO2 and MgO2 release over six days, dissolved oxygen readings are an average of 5 sample groups with 1500 microcapsules each; measurements were taken in a hypoxic chamber.\nFIG. 2: Effect of antioxidants on oxygen release from alginate microcapsules with 2.5% MPO.\nComparison of CPO and MPO: We first examined the oxygen release profiles of two POGS, CPO and MPO encapsulated in alginate microbeads in the absence or presence of catalase (100 U/ml), and the antioxidant, Trolox (1.5 mM). Sieves were used to select both MPO and CPO particles equal to and less than 25 μm in diameter. Then 0.5% by weight solution of 1.5% LVM and either CPO or MPO were prepared respectively. These solutions were then extruded through an encapsulating device forming microspheres measuring […] in diameter, which were allowed to crosslink for 15 minutes in 1.1% CaCl2 solution. After cross-linking, the microbeads were rinsed with HBSS and placed into 50 ml conical tubes (BD, USA) containing 20 mL ultra pure water with 10 mM HEPES (pH=7.4). Tubes were placed in a 1% oxygen environment in a hypoxic glovebox system (Biospherix, USA) with the caps of the tubes removed allowing for gas exchange. Dissolved oxygen readings were taken every 24 hours for 6 days using an Orion 4-star DO Probe (Thermo Science).\nOxygen release from MPO Alginate Capsules: On the basis of a better release profile, we then selected MgO2 for further studies. First the release profiles of various concentrations of MPO were measured. Using the same technique as described above 0%, 0.25%, 0.5%, 1%, 1.5%, 2.0%, 2.5%, 5%, 10%, 20%, 30%, and 40% (by weight) solutions of MPO in 1.5% UP LVM were prepared, with particles larger than 25 μM sieved out of the solution prior to encapsulation. […] Dissolved oxygen levels were measured for up to 250 hours. Using the same methodology we then assessed the effect of the antioxidants, Catalase and Trolox, on oxygen release. […] Capsules were prepared and dissolved oxygen levels were measured as described earlier. […] Dissolved oxygen levels were measured for up to 250 hours."}, "Isolated human islets": {"system": "Isolated human islets", "assay": "MTS viability assay of islets co-cultured with MPO and antioxidants", "type": "cell-based", "experimental": "FIG. 4: Viability of islets co-cultured with MPO and antioxidants. Isolated human islets were co-cultured with 10 mM MPO for 2 days in normal culture conditions with the following antioxidants: 100 Units/mL Catalase, 1.5 mM Trolox and 30 μM MnTE-2-Pyp. After the two day culture period islet viabilty was determined with an MTS assay. Error bars represent standard deviation, n=5.\nPrevious studies have shown that the isolation process predisposes islets to subsequent damage and functional impairment and that an SOD mimicking catalytic antioxidant, MnTE-2-PyP (also called AEOL10113), developed by Drs."}, "[2]": {"system": "islet cell functional mass", "conditions": "used in the isolation or culture medium; cited from earlier work"}},
  "note": "“Also recorded” adds a separate entry of the source.",
  "data": [
    {"molecule": "[Mg+2].[O-][O-]", "note": "[MPO, Magnesium Peroxide]", "values": [
      {"measurement": "release of oxygen", "setting": "[1]; 0.5% by weight CPO or MPO in 1.5% LVM alginate microbeads, 1% oxygen environment, readings every 24 hours for 6 days", "result": "higher release of oxygen for up to five days compared to CPO"},
      {"measurement": "effect of MPO on islet viability", "setting": "Isolated human islets; 10 mM MPO, 2 days normal culture", "result": "diminishing effect"}
    ]},
    {"molecule": "CC[n+]1ccccc1-c1c2nc(c(-c3cccc[n+]3CC)c3ccc([n-]3)c(-c3cccc[n+]3CC)c3nc(c(-c4cccc[n+]4CC)c4ccc1[n-]4)C=C3)C=C2.[Mn+3]", "note": "[MnTE-2-PyP, Mn (III) tetrakis (N-ethylpyridinium-2-yl) porphyrin]", "values": [
      {"measurement": "effect on viability of islets co-cultured with MPO", "setting": "Isolated human islets; 10 mM MPO, 30 μM MnTE-2-Pyp, 2 days normal culture", "result": "counteracts the diminishing effect of MPO on islet viability"},
      {"measurement": "viability of isolated human islets", "setting": "Isolated human islets; added to islets in normal culture, 30 μM MnTE-2-Pyp, 2 days, n=5", "result": "significantly (p<0.05) enhances the viability"},
      {"measurement": "preservation of islet cell functional mass", "setting": "[2]", "result": "beneficial in preserving islet cell functional mass"}
    ]},
    {"molecule": "Cc1c(C)c2c(c(C)c1O)CCC(C)(C(=O)O)O2", "note": "(stereo not shown) [Trolox, 6-hydroxy-2,5,7,8-tetramethylchroman-2-carboxylic acid]", "values": [
      {"measurement": "duration of oxygen release from alginate microbeads containing MgO2 in the presence of antioxidant", "setting": "[1]", "result": "this effect is not observed; also recorded: no significant change"}
    ]},
    {"molecule": "B1", "values": [
      {"measurement": "duration of oxygen release from alginate microbeads containing MgO2 in the presence of antioxidant", "setting": "[1]", "result": "significantly shortened"}
    ]}
  ]
}
